The source of these data is publication PMC5607094 (Biochemical pharmacology, 2017).

One may read the IC50 as the midpoint of a concentration-inhibition curve.

The subject of assay [1] is human neutrophils. The assay is described as follows: fMLF-induced neutrophil chemotaxis. It is filed as cell-based. The settings on record: read-out: Chemotaxis PMN (+ fMLF) IC50.
Assay [2] addresses T1, FPR1 (Homo sapiens, UniProt P21462).
T1 sequence (P21462 1-350): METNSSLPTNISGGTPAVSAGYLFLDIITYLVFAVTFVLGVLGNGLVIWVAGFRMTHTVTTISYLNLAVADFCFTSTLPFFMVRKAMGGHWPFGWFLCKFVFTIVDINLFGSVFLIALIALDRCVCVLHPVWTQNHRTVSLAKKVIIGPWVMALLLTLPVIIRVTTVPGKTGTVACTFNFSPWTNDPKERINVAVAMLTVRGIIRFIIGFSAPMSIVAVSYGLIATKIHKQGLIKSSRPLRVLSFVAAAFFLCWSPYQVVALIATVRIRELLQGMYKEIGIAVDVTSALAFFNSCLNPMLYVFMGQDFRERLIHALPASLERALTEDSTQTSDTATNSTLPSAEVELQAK
The assay is described as follows: fMLF-induced Ca2+ mobilization in FPR1-HL60 cells. It is filed as cell-based. Conditions: for Activity class: Active / N.A. = no activity at highest concentration tested in Ca2+ flux assay (50 µM); for FPR1 antagonist activity: fMLF-induced Ca2+ mobilization in FPR1-HL60 cells. In general terms: A change in cytosolic calcium serves as a functional read-out for many receptors and channels.

The target of assay [3] is T1, FPR1. The assay is described as follows: fMLF-induced Ca2+ flux in human neutrophils. It is filed as cell-based.
In assay [4] the test system is ERK1/2. The assay is described as follows: ERK1/2 phosphorylation in FPR1-RBL cells. It is filed as cell-based, rat. Conditions: FPR1-RBL cells (Figure 5B; text prints FPR1-HL60), 20 nM fMLF.
Assay [5] deals with ERK1/2. The assay is described as follows: ERK1/2 phosphorylation in human neutrophils. Conditions: 10 min pretreatment, 10 nM fMLF. It is filed as cell-based.
Assay [6] concerns human neutrophils. The experiment in a line: fMLF-induced neutrophil adhesion to T84 epithelial cells. It is filed as cell-based. The settings on record: read-out: Adhesion PMN (+ fMLF) IC50.
Assay [7] relates to ERK1/2. The experiment in a line: ERK1/2 phosphorylation in DMSO-differentiated neutrophil-like HL60 cells. Conditions: for Inhibition of fMLF-induced phosphorylation of ERK1/2: DMSO-differentiated HL60 cells, 10 min pretreatment, 20 nM fMLF 5 min; for Inhibition of fMLF-induced ERK phosphorylation: cell type not stated in the sentence (Discussion). It is filed as cell-based, human.

Assay [8] concerns the target T2, FPR2 (Homo sapiens, UniProt P25090).
T2 sequence (P25090 1-351): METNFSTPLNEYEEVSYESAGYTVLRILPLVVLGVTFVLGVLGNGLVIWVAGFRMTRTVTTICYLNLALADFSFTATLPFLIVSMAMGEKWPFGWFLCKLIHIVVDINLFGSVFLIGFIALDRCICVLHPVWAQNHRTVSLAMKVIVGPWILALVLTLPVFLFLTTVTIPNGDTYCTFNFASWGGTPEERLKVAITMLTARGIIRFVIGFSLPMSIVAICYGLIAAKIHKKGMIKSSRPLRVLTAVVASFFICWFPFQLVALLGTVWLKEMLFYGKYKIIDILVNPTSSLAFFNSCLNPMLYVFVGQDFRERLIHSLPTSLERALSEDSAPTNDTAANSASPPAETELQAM
The experiment in a line: WKYMVM-induced Ca2+ flux in human neutrophils.

For assay [9], the target named is T2, FPR2. The experiment in a line: Ca2+ mobilization in FPR2-HL60 cells.

Take `CCCCCCN1C(=O)C(O)=C(C(=O)c2ccccc2)C1c1ccc(O)c(OC)c1` (centres unmarked) [Compound 14, 4-benzoyl-1-hexyl-3-hydroxy-5-(4-hydroxy-3-methoxyphenyl)-2,5-dihydro-1H-pyrrol-2-one]: the values for the IC50 in the assay with human neutrophils [1], against FPR1 [3] and in the assay on human neutrophils [6] were 4.2 ± 1.3 µM, 4.8 ± 0.5 µM and 1600 ± 600 nM, respectively. For the same compound, at FPR1 [2], the Activity class entry is given as “Active”. Moreover, the “Inhibition of fMLF-induced ERK1/2 phosphorylation” value with ERK1/2 [4] is “inhibited”. Further, the “Inhibition of fMLF-induced phosphorylation of ERK1/2” value in the assay on ERK1/2 [5] and in the assay on ERK1/2 [7] was “effectively inhibited” in each case. For the same compound, the “Inhibition of fMLF-induced ERK phosphorylation” value in the assay with ERK1/2 [7] is on record as “inhibited”.
Turning to `COCCN1C(=O)C(O)=C(C(=O)c2ccc(C)cc2)C1c1cc(OC)ccc1OC` (centres unmarked) [Compound 18, 5-(2,5-dimethoxyphenyl)-3-hydroxy-1-(2-methoxyethyl)-4-(4-methylbenzoyl)-2,5-dihydro-1H-pyrrol-2-one], the IC50 in the assay with human neutrophils [1] was 12.4 ± 4.2 µM; against FPR1 [3], 5.2 ± 1.4 µM; with human neutrophils [6], 13300 ± 2700 nM. Besides, at FPR1 [2], the Activity class entry is “Active”. Moreover, the “FPR1 antagonist activity” value on FPR1 [2] was “highly active FPR1 antagonists”.
Regarding `CCCCN1C(=O)C(O)=C(C(=O)c2ccc(OC)cc2)C1c1ccc(C)cc1` (centres unmarked) [Compound 5, 1-butyl-3-hydroxy-4-(4-methoxybenzoyl)-5-(4-methylphenyl)-2,5-dihydro-1H-pyrrol-2-one], the IC50 with human neutrophils [1] came to 21.3 ± 7.6 µM; against FPR1 [3] it was 26.7 ± 4.6 µM; in the assay on human neutrophils [6], 25800 ± 3200 nM. Also, on FPR1 [2], the Activity class result is on record as “Active”.
Regarding `CCCN1C(=O)C(O)=C(C(=O)c2ccccc2)C1c1cc(OC)ccc1OC` (centres unmarked) [Compound 4, 4-benzoyl-5-(2,5-dimethoxyphenyl)-3-hydroxy-1-propyl-2,5-dihydro-1H-pyrrol-2-one], the values for the IC50 in the assay with human neutrophils [1], against FPR1 [3] and with human neutrophils [6] were 6.3 ± 2.2 µM, 10.7 ± 2.5 µM and 2900 ± 1100 nM, respectively. Besides, the Activity class result on FPR1 [2] is on record as “Active”.
Take `COCCN1C(=O)C(O)=C(C(=O)c2ccccc2)C1c1cc(OC)ccc1OC` (centres unmarked) [Compound 17, 4-benzoyl-5-(2,5-dimethoxyphenyl)-3-hydroxy-1-(2-methoxyethyl)-2,5-dihydro-1H-pyrrol-2-one]: the figures for the IC50 in the assay on human neutrophils [1], against FPR1 [3] and in the assay with human neutrophils [6] were 2.2 ± 1.2 µM, 6.7 ± 0.2 µM and 1100 ± 200 nM, respectively. Further, the Activity class result at FPR1 [2] is “Active”. Further, in the assay on ERK1/2 [4], the “Inhibition of fMLF-induced ERK1/2 phosphorylation” value is on record as “inhibited”. Also, the “Inhibition of fMLF-induced phosphorylation of ERK1/2” value in the assay on ERK1/2 [5] and in the assay with ERK1/2 [7] was “effectively inhibited” throughout. Besides, the “Inhibition of fMLF-induced ERK phosphorylation” value with ERK1/2 [7] is reported as “inhibited”.
Regarding `CCCCCCN1C(=O)C(O)=C(C(=O)c2ccc(C)cc2)C1c1ccc(OC)cc1OC` (centres unmarked) [Compound 15, 5-(2,4-dimethoxyphenyl)-1-hexyl-3-hydroxy-4-(4-methylbenzoyl)-2,5-dihydro-1H-pyrrol-2-one], the IC50 in the assay on human neutrophils [1] amounted to 12.8 ± 4.8 µM; on FPR1 [3], 3.8 ± 1.8 µM; against FPR2 [8], 1700 ± 100 nM; on FPR2 [9], 6.5 ± 0.9 µM. The Activity class result on FPR1 [2] is reported as “Active”. For the same compound, on FPR1 [2], the “FPR1 antagonist activity” value is on record as “highly active FPR1 antagonists”. In addition, the “Inhibition of fMLF-induced ERK phosphorylation” value in the assay on ERK1/2 [7] was “inhibited”.
For the compound `COc1ccccc1C1C(C(=O)c2ccc(C)cc2)=C(O)C(=O)N1CC(C)O` (centres unmarked) [Compound 6, 3-hydroxy-1-(2-hydroxypropyl)-5-(2-methoxyphenyl)-4-(4-methylbenzoyl)-2,5-dihydro-1H-pyrrol-2-one], the results for the IC50 in the assay with human neutrophils [1] and against FPR1 [3] were 36.3 ± 4 µM and 12.4 ± 3.2 µM, respectively.
